Reference: patent US9649324B2, “Use of tylvalosin as antiviral agent” (ECO ANIMAL HEALTH LIMITED, priority 2006, dated 2017)

Assays:
HRT-18 cells = assay: Intracellular accumulation of macrolides in HRT-18 cells; type: in vitro ADME, human; conditions: HRT-18 cells, 10 μg/mL antibiotic
Experimental: HRT-18 cells, in 6 cm tissue cultures dishes, were incubated in the presence of 0.5, 5 or 50 μg/mL tylvalosin. After 4 h, two dishes for each tylvalosin concentration and two dishes without antibiotic were removed from the incubator. A sample of medium (about 1 mL) was removed, placed in a labelled Eppendorf tube and stored at −20° C. The rest of the medium was then removed. Each of the cell monolayers was washed twice in PBS, using approximately 5 mL for each wash. The plunger from a 2 mL plastic syringe was used to gently scrape off the cells. PBS (500 μL) was added to the dish and the cells gently removed into this medium, using a micropipette. The sample was then placed in an Eppendorf tube and centrifuged at 8000×g in a bench centrifuge (Biofuge pico, Heraeus instruments) for 13 sec. An obvious cell pellet formed. The supernatant was removed using a micropipette and the cell material was stored at −20° C. in a labelled Eppendorf tube. After approximately 24 h the remaining tissue culture dishes were removed from the incubator and treated as described above for the 4 h samples. All the samples, including the 4 h samples, were then stored at −70° C.
HRT-18 cells were prepared as described above and used at passage 42. Stock solutions of antibiotics (either tylvalosin, tylosin or tilmicosin) were diluted in growth media and 10 μg/mL each antibiotic was added to the confluent cell monolayers. The cells were incubated at 37° C. in a 5% CO2 atmosphere for either 4 h or 24 h. The media and cells were harvested and tested for antibiotic, as described above.
(§1) All the supernatant and cell samples were transported frozen (at approximately −20° C.) to York Bioanalytical Solutions (York, England) for analysis. Briefly, 0.25 g of buffer (RPMI medium containing 10% FCS) was weighed into a polypropylene tube. A 50 μL volume of the appropriate working solution was added to the quality control (QC) samples. Methanol (50 μL) was added to each blank sample used for preparation of calibration standards, recovery samples and reagent blanks. A 2.5 mL volume of 0.1 M phosphate buffer was added to each sample, vortex mixed for approximately 1 min and then centrifuged at 3220×g for 10 min at 4° C.
(§2) For the liquid-liquid clean-up phase, an aliquot (100 μL) of the supernatant was transferred to a polypropylene tube. The pH was adjusted to pH 8-8.5 by the addition of 0.1 M NaOH, and vortex mixed. Ethyl acetate (5 mL) was added and after capping, the whole mixture was shaken for 10 min and then centrifuged at 3220×g for 10 min at 4° C.
(§3) Ammonium acetate (20 mM; pH native)—formic acid, 1000:3, v/v (100 μL) was added to each well in a 2 mL polypropylene collection plate. An aliquot of the ethyl acetate mixture (100 μL) was transferred to the polypropylene collection plate and evaporated under nitrogen (40° C.) until the ethyl acetate was fully evaporated whilst the ammonium acetate remained. Methanol (100 μL) was added to each well, excluding the calibration standards.
(§4) To each well containing a calibration standard, 100 μL of the appropriate calibration working solution was added. Samples were then vortex mixed for at least 10 min and submitted for liquid chromatography with tandem mass spectrometric analysis. The method stated was applicable to the samples of media (and the calibration standards and quality control samples).
(§5) For the cells, the sample tubes were weighed, and 100 μL of acetonitrile was added. The samples were vortex mixed for 10 sec, then centrifuged at 10285×g at 4° C. for 5 min. The sample was transferred to a polypropylene tube. The original sample tube was washed with 0.1 M phosphate buffer (1 mL). This was transferred to the polypropylene tube. A second wash of 1 mL was made, then a final wash of 0.5 mL. The polypropylene tube was now at the same stage as the end of the liquid extraction, but with the cells present rather than media. This was then taken through the sample preparation as described above. […]

Caco-2 cells = assay: Intracellular accumulation and trans-epithelial transport in polarised Caco-2 cells; type: in vitro ADME, human; conditions: Caco-2, 10 μg/mL, apical administration
Experimental: Caco-2 cells were seeded at a density of 0.8×10^6 cells per well of a Transwell Clear filter 6 well plate, 0.4 μm pore size. The cells were incubated with 2 mL medium in both apical and basolateral chambers. This medium was replaced every 2 days for 10-14 days. Transepithelial resistance was measured using Millicell ERS apparatus (Millipore) at day 7, 10 and/or 14 in order to identify when the cells had become polarised. Readings of >1000 Ω were indicative of polarised cells. […]
as §1, §2, §3, §4
(§6) For the cells, the sample tubes were weighed, and 100 μL of acetonitrile was added. The samples were vortex mixed for 10 sec, then centrifuged at 10285×g at 4° C. for 5 min. The sample was transferred to a polypropylene tube. The original sample tube was washed with 0.1 M phosphate buffer (1 mL). This was transferred to the polypropylene tube. A second wash of 1 mL was made, then a final wash of 0.5 mL. The polypropylene tube was now at the same stage as the end of the liquid extraction, but with the cells present rather than media. This was then taken through the sample preparation as described above. The original sample tubes were allowed to dry (i.e. any remaining solvent evaporated off) and were then reweighed to determine the weight of cells in the sample, to allow the concentration per gram of cells to be determined.

LLC-PK1 cells = assay: Intracellular accumulation in pig kidney epithelial cells; type: in vitro ADME; conditions: LLC-PK1, 10 μg/mL
Experimental: LLC-PKI cells in 6 cm^2 plastic tissue culture dishes were incubated with 10 μg/mL of the different macrolides. Cells and medium were harvested as described above at 30, 75 and 120 min.
as §1, §2, §3, §4, §6

pig white blood cells = assay: Intracellular accumulation in pig white blood cells; type: in vitro ADME
Experimental: (§7) Pig blood was collected in Heparin-coated BD vacutainers (6). 20 mL of blood and 30 mL of phosphate buffered saline (PBS) were mixed in a 50 mL conical centrifuge tube. This was repeated in order to obtain 3 such tubes. The mixtures were centrifuged for 10 min at 2050×g. The white blood cells, together with some red blood cells below, were harvested into a 50 mL conical centrifuge tube. PBS was added to about 50 mL. A 63% solution of Percoll was made as follows: 6.3 mL Percoll (Sigma), 1.0 mL 1.5 M NaCl, 2.7 mL H2O. 10 mL of 63% Percoll was added to each of two 50 mL conical centrifuge tubes. 25 mL of the resuspended white blood cells were carefully layered on top of the each of the Percoll solutions. A sharp interface was produced. The material was centrifuged at 3000×g for 10 min. […] The white blood cells were harvested in PBS (50 mL) and centrifuged at 500×g for 10 min. The cell pellet was resuspended in medium (Glasgow minimum essential medium containing penicillin and streptomycin). A viable cell count was made using trypan blue. The same method used for isolation of pig WBCs was used for the chicken WBCs, with the exception that heparin (100 I.U./mL) was prepared and mixed with an equal volume of chicken whole blood.
Cells were incubated with 10 mg/mL of each antibiotic. All tubes were placed on a rotary mixing machine, at 37° C. Supernatant and cell samples were harvested at the times described in the figure legends. Duplicate samples were used for each antibiotic for each time point.
as §1, §2, §3, §4, §5

[1] = test system: chicken white blood cells; assay: Intracellular accumulation in chicken white blood cells; type: in vitro ADME; conditions: chicken white blood cells, 10 μg/mL
Experimental: as §7
All tubes were placed on a rotary mixing machine, at 37° C. Supernatant and cell samples were harvested at the times described in the figure legends. Duplicate samples were used for each antibiotic for each time point.
as §1, §2, §3, §4, §5

PRRSV = conditions: has been shown; cited from earlier work
[2] = test system: VR2332 (US strain of PRRSV); assay: VR2332 (US strain of PRRSV) entry assay in MA104 cells (Example 10); conditions: 4 h pretreatment, moi 10, overnight

CC[C@H]1OC(=O)C[C@@H](O)[C@H](C)[C@@H](O[C@@H]2O[C@H](C)[C@@H](O)[C@H](N(C)C)[C@H]2O)[C@@H](CCN2C[C@H](C)C[C@H](C)C2)C[C@@H](C)C(=O)/C=C/C(C)=C/[C@@H]1CO[C@@H]1O[C@H](C)[C@@H](O)[C@@H](OC)[C@H]1OC (single isomer, unassigned) [tilmicosin, reference compound]
average intracellular concentration (HRT-18 cells; 4 h): 7.24 μg/mg cells | intracellular:extracellular ratio (HRT-18 cells; 4 h): 1.32 fold | average intracellular concentration (HRT-18 cells; 24 h): 32.45 μg/mg cells | intracellular:extracellular ratio (HRT-18 cells; 24 h): 4.64 fold | average intracellular concentration (Caco-2 cells; 120 min): 8.6 μg/mg cells | average intracellular concentration (Caco-2 cells; 240 min): 16.05 μg/mg cells | basolateral chamber content as average % of the apical chamber value (Caco-2 cells; 240 min): 1.08% | intracellular:extracellular ratio (fold concentration) (Caco-2 cells; 240 min): 2.5 fold | average intracellular concentration (LLC-PK1 cells; 75 min): 4.98 μg/mg cells | intracellular:extracellular ratio (LLC-PK1 cells; 120 min): 1.7 | average intracellular concentration (pig white blood cells; 10 min): 31.25 μg/mg cells | average intracellular:extracellular ratio (IC:EC) (pig white blood cells; 10 min): 4.33 | average intracellular:extracellular ratio (IC:EC) (pig white blood cells; 10 min, listed as Tilmicosin): 4 | intracellular concentration (pig white blood cells; 20 min): 36 μg/mg cells | average intracellular concentration ([1]; 15 min): 37.1 μg/mg cells | intracellular concentration ([1]; 60 min): 71.3 μg/mg cells | toxicity in cell culture assays of antiviral potency (cell culture): much more toxic than tylvalosin | effect on PRRSV (PRRSV): effective | inhibition of VR2332 infection [2]: partial inhibition
